Test results taken from article PMC9822434, “Estradiol-Based Salicylaldehyde (Thio)Semicarbazones and Their Copper Complexes with Anticancer, Antibacterial and Antioxidant Activities” (Molecules, 2022).
Values after ≈ are worked out from the molar mass of the structure shown. Read-outs that look alike come from different tables or passages of the source.

Columns and labels:
E. faecalis ATCC 29212 = assay: MIC determination; format: cell-based, Enterococcus faecalis; details: Gram-positive E. faecalis ATCC 29212, Mueller Hinton Broth
Protocol: (§1) Klebsiella pneumoniae (ATCC 49619), Escherichia coli (ATCC 25922), Staphylococcus aureus (ATCC 25928) and Enterococcus faecalis (ATCC 29212) strains were used as Gram-negative and Gram-positive bacterial cultures. The stock solutions of the tested compounds (dissolved in 90% (v/v) DMSO/H2O at 10 mM concentration) were diluted in 100 μL of Mueller Hinton Broth, and then two-fold serial dilutions were performed. As a starting point, 100 μM concentration of the compounds was used. Then, 10^−4 dilution of an overnight bacterial culture in 100 μL of medium was added to each well, with the exception of the medium control wells. Minimum inhibitory concentration (MIC) values of compounds were determined according to our previous work.

S. aureus ATCC 25928 = assay: MIC determination; format: cell-based, Staphylococcus aureus; details: Gram-positive S. aureus ATCC 25928, Mueller Hinton Broth
Protocol: as §1

DU-145 = assay: MTT cytotoxicity assay; format: cell-based, human; details: DU-145, MTT; for IC50: 24 h incubation time; for effect on cell viability (in words): up to 20 µM, 24 h
Protocol: (§2) To test the biological effects of the Cu(II) complexes and the ligands on human cancer cells, DU-145 prostate, A549 lung, and MCF-7 breast adenocarcinoma cells, as well as the multidrug-resistant MCF-7 KCR breast cancer cells were utilized. All the cell lines were maintained in RPMI-1640 media (Biosera, Nuaille, France) complemented with 10% fetal bovine serum (FBS), 2 mM L-glutamine, 0.01% streptomycin and 0.005% penicillin, (Biosera, Nuaille, France) and were cultured under standard conditions in a 37 °C incubator at 5% CO2 and 95% humidity. The cell lines were originally obtained from ATCC.
(§3) The effect of the complexes and of their ligands alone on the viability (on the metabolic activity) of human cancer cells was assessed by MTT assay. The tested compounds were dissolved in 90% (v/v) DMSO/H2O at 10 mM concentration. Equimolar solutions of the ligand CuCl2 salt were used for the cytotoxicity assays. The metal salts without ligands were also tested. For this, 1 × 10^4 cells/well were seeded into 96-well plates and left to grow overnight. On the following day, cells were exposed to increasing concentrations of each compound (0; 2.5; 5; 10; 15; 20 µM). After a 24 h incubation, cells were washed with PBS buffer and then incubated with 0.5 mg/mL MTT (Sigma-Aldrich, St Louis, Missouri, MO, USA) for 1 h at 37 °C. The formazan crystals were solubilized in DMSO (Molar Chemicals, Halásztelek, Hungary), and the absorbance of samples was determined at 570 nm using a Synergy HTX plate reader (BioTek, Winooski, Vermont, VT, USA). Absorption corresponding to the untreated control samples was considered as 100%.

MCF-7 = assay: MTT cytotoxicity assay; format: cell-based, human; details: MCF-7, MTT; for IC50: 24 h incubation time; for effect on cell viability (in words): up to 20 µM, 24 h
Protocol: as §2, §3

A549 = assay: MTT cytotoxicity assay; format: cell-based, human; details: for IC50: 24 h incubation time; for effect on cell viability (in words): up to 20 µM, 24 h
Protocol: as §2, §3

MCF-7 KCR = assay: MTT cytotoxicity assay; format: cell-based, human; details: for effect on cell viability (in words): up to 20 µM, 24 h
Protocol: as §2, §3

[1] = system: A549, MCF-7, MCF-7 KCR and DU-145 cells; assay: γH2AX immunostaining (DNA double-strand breaks); format: cell-based, human; details: 20 µM, 3 h
Protocol: In order to determine the degree of DNA damage induced by the treatments, DNA double-strand breaks were visualized by γH2AX immunostaining. For this, 1 × 10^5 cells/well were seeded onto coverslips in 24-well plates. […] Then, cells were fixed with 4% formaldehyde (Molar Chemicals, Halásztelek, Hungary), permeabilized with 0.3% Triton-X-100 (Calbiochem, Merck Millipore, Darmstadt, Germany) and were blocked using 5% bovine serum albumin (BSA) (Sigma-Aldrich, St. Louis, MO, USA). Then, the samples were incubated with anti-γH2AX antibody (Thermo Fisher Scientific, Waltham, MA, USA) in 1:300 dilution followed by Alexa 488 fluorophore-conjugated goat anti-mouse secondary antibody (Abcam, Cambridge, UK) in 1:600 dilution. The fluorescence intensity of the stained samples was detected by an Olympus FV10i confocal microscope.

physchem = format: physicochemical
Protocol: (§4) An Orion 710A pH-meter equipped with a Metrohm combined electrode (type 6.0234.100) and a Metrohm 665 Dosimat burette were used for the UV–vis titrations at 25.0 ± 0.1 °C. Ionic strength of 0.10 M (KCl) was used to keep the activity coefficients constant. The titrations were performed with carbonate-free KOH solution of known concentration (0.10 M) with 30% (v/v) DMSO content. […] The average water ionization constant (pKw) is 14.54 ± 0.05 in the 30% (v/v) DMSO/H2O mixture. Argon was always passed over the solutions during the titrations. An Agilent Cary 8454 diode array spectrophotometer was used to record the UV–vis spectra at an interval of 200–800 nm. The path length was 2 cm. Spectrophotometric titrations were performed using a 0.1 M KOH titrant solution with 30% (v/v) DMSO on samples with 30% (v/v) DMSO containing HCl, KCl and the ligand at 20 μM concentration in the pH range 2.0–12.5 in the absence or in the presence of 1 or 0.5 equiv. Cu(II) ions. Proton dissociation constants (Ka) of the TSC ligands, the overall stability constants (β) of the Cu(II) complexes and the UV–vis spectra of the individual species were calculated by the computer program PSEQUAD [41] as was done in our previous works.

[2] = format: physicochemical; details: for logβ [CuLH−1] / logβ [CuL]+: Cu(II) complex of the named ligand, 30% (v/v) DMSO/H2O, T = 25.0 °C, I = 0.1 M (KCl); for pCu5.0: calculated at pH 5.0, cCu(II) = 20 µM; for pCu5.0 / pCu6.0 / pCu7.4: cligand = 20 µM; for pCu6.0: estimated at pH 6.0, cCu(II) = 20 µM; for pCu7.4: estimated at pH 7.4, cCu(II) = 20 µM
Protocol: as §4

[3] = system: HCT-116 colon cancer cell line; design: method as in doi:10.1039/D0NJ01070G, PMID 34453218, PMID 33951554; details: cited from earlier work
[4] = direct redox reaction of the Cu(II) complexes with GSH (UV–vis, anaerobic); format: physicochemical; details: Cu(II) complex (25 µM) of the named ligand with GSH (1.25 mM), pH 7.4, anaerobic, 30% (v/v) DMSO/H2O, 25.0 °C
Protocol: The redox reaction of the Cu(II) complexes with GSH and ascorbic acid was studied at 25.0 ± 0.1 °C, at pH 7.40 (10 mM HEPES with 0.1 M KCl) on an Agilent Cary 8454 diode array spectrophotometer using a special, tightly closed tandem cuvette (Hellma Tandem Cell, 238-QS). The complex and the reducing agent were separated until the reaction was triggered. Both isolated pockets of the tandem cuvette were completely deoxygenated by bubbling argon for 10 min before mixing the reactants. Spectra were recorded before and then immediately after the mixing, and changes were followed till no further absorbance change was observed. The stock solutions of the reducing agents and the complexes were freshly prepared every day.
During the calculations, the absorbance (A)−time (t) curves were fitted and analyzed at the λmax of the complex. (A0 − Afinal) × e ^(−a×t) + Afinal equation was used where A0, Afinal and a parameters were refined and accepted at the minimal value of the weighted sum of squared residuals (difference between the measured and calculated absorbance values) at the given wavelength. Then observed rate constants (kobs) of the redox reaction were obtained from the data points of the simulated absorbance–time curves as the slope of the ln(A/A0) versus t plots.

[5] = cited from earlier work
[6] = cited from earlier work; remark: listed apart in the source
[7] = DPPH free radical scavenging assay; details: for % Scavenging Effect: DPPH:compound = 1:1 ratio after 30 min, ethanol; for IC50: in ethanol, T = 25 °C, cDPPH = 50 µM, ccompound = 5−50 µM
Protocol: The DPPH (Sigma-Aldrich) free radical scavenging capacity was studied at 25.0 ± 0.1 °C on an Agilent Cary 3500 spectrophotometer with tightly closed tandem cuvette according to our approach with some modifications. The stock solution of DPPH (100 µM) was prepared in ethanol, and 0.5 mL of this solution was added to one pocket of the cuvette and 0.5 mL of the tested compound in different concentrations in ethanol was added to another. The final concentration of the studied compounds was in the range 5–50 µM, where for DPPH concentration, it was always 50 µM. A standard compound Trolox (Sigma-Aldrich) was used as a positive control. The percentage of the antioxidant activity (AA), IC50 values (the concentration of compound at which it reduced 50% of DPPH) and Trolox equivalent antioxidant capacity (TEAC) were calculated.

[8] = 30% (v/v) DMSO/H2O, T = 25.0 °C, I = 0.1 M (KCl)

Row | Structure (SMILES) | MIC (S. aureus ATCC 25928) | effect on cell viability (in words) (DU-145) | effect on cell viability (in words) (MCF-7) | effect on cell viability (in words) (A549) | effect on cell viability (in words) (MCF-7 KCR) | pKa (physchem) | pKa [CuL]+ [2] | logβ [CuLH−1] [2] | logβ [CuL]+ [2] | pCu5.0 [2] | pCu6.0 [2] | pCu7.4 [2] | IC50 [3] | kobs [4] | % Scavenging Effect ([7]; 25 °C) | IC50 [7] | further results
1 | [Cl][Cu][Cl] [CuCl2, reference compound] | >100 µM | No toxic effect | No toxic effect | No toxic effect | No toxic effect | – | – | – | – | – | – | – | – | – | – | – | MIC (E. faecalis ATCC 29212): >100 µM; IC50 (DU-145): > 20 µM; IC50 (MCF-7): > 20 µM; IC50 (A549): > 20 µM; IC50 (MCF-7 KCR; 24 h incubation time): > 20 µM; DNA double-strand breaks (γH2AX) vs untreated control cells [1]: None of these treatments caused a higher degree of DNA damage
2 | CN(C)C(=S)NN=Cc1cc2c(cc1O)CCC1C2CCC2(C)C(=O)CCC12 (stereo not drawn) [Me2-estrone-TSC, reference compound] | – | – | – | – | – | 9.02 ± 0.03 ^4 | 3.92 ^4 | 9.44 ± 0.07 ^4 | 13.36 ± 0.08 ^4 | 8.0 | 9.7 | 12.5 ^4 | 21 µM | 0.05 ^4 min^−1 | – | – | –
3 | CNC(=S)NN=Cc1cc2c(cc1O)CCC1C2CCC2(C)C(=O)CCC12 (stereo not drawn) [Me-estrone-TSC] | – | – | – | – | – | – | – | – | – | 7.7 | 9.2 | – | 25 µM | 0.05 ^4 min^−1 | – | – | logβ [CuLH−1] [5, 8]: 9.66 ^3; logβ [CuL]+ [5, 8]: 13.64 ^3; pCu7.4 ([5]; pH 7.4, cCu(II) = 20 µM, cligand = 20 µM): 11.9 ^3
4 | NC(=O)N/N=C/c1ccccc1O [SSC] | – | – | – | – | – | – | – | – | – | – | – | – | – | – | – | – | pKa ([6]; salicylaldehyde SC): 9.30
5 | NC(=S)N/N=C/c1ccccc1O [STSC, salicylaldehyde TSC, reference compound] | – | – | – | – | – | – | – | – | – | – | – | – | – | – | 23.4% | 19 µM | TEAC (Trolox equivalent antioxidant capacity) ([7]; DPPH assay in ethanol, 25 °C): 0.6; pKa ([6]; salicylaldehyde TSC): 8.84
6 | C[C@]12CC[C@@H]3c4cc(C=NNC(N)=O)c(O)cc4CC[C@H]3[C@@H]1CCC2O (stereo partly drawn) [estradiol-SC, 2-[(3,17 Dihydroxy-estra-1,3,5(10)-triene-2-yl)methylene]Hydrazine-1-carboxamide] | 50 µM (≈ 17.9 µg/mL) | neither the estradiol-SC nor the Cu(II)-estradiol-SC complex exhibit any harmful effect | neither the estradiol-SC nor the Cu(II)-estradiol-SC complex exhibit any harmful effect | only slightly toxic | only slightly toxic | 10.02 ± 0.03 | 6.48 | 5.16 ± 0.03 | 11.63 ± 0.03 | 5.7 | 6.3 | 7.8 | – | fast reaction | 6.5% | > 50 µM | MIC (E. faecalis ATCC 29212; Enterococcus faecalis, ATCC29212): > 100 µM; MIC (S. aureus ATCC 25928; Staphylococcus aureus, ATCC25928): 50 µM (≈ 17.9 µg/mL); IC50 (DU-145; Homo sapiens): > 20 µM; IC50 (MCF-7; Homo sapiens, MCF7): > 20 µM; IC50 (A549; Homo sapiens): > 20 µM; IC50 (MCF-7 KCR; Homo sapiens, MCF7, 24 h incubation time): > 20 µM; melting point: 238 °C
